# Results as given in patent US7615651B2, “Diaryl, dipyridinyl and aryl-pyridinyl derivatives and uses thereof” (Pfizer Inc., priority 2006, dated 2009).
# Like-named read-outs stand apart in the source and are kept apart here.
# What was measured:
# Format in all cases: biochemical
# opioid receptor delta = biological target: T1, opioid receptor delta (Homo sapiens, UniProt P41143); experiment: GTPγ[35S] binding assay, antagonism of BW-373U86
# T1 construct: expressed in transfected cells
# Experimental: (§1) Membranes were prepared from cells as described (Bass et al, 1996). GTPγ[5S] binding assays were performed in a 96 well FlashPlate™ format in duplicate using […] GTPγ[^35S] and 5 μg membrane per well in assay buffer composed of 50 mM Tris HCl, pH 7.4, 5 mM MgCl2, 1 mM EDTA, 100 mM NaCl, 30 μM GDP, 0.1% bovine serum albumin and the following protease inhibitors: 100 μg/ml bacitracin, 100 μg/ml benzamidine, 5 μg/ml aprotinin, 5 μg/ml leupeptin. The assay mix was then incubated at 30° C. with increasing concentrations of antagonist (10^−10 M to 10^−5 M) for 10 minutes and challenged with the agonists BW-373U86 (1 nM), dynorphin-A (10 nM), […] (1 μM) for opioid receptors delta, kappa, and mu, respectively. The assays were performed at 30° C. for one hour. The FlashPlates were then centrifuged at 2000×g for 10 minutes. Stimulation of GTPγ[^35S] binding was then quantified using a Wallac Microbeta and Ki calculations were done using Prism™ by Graphpad.
# opioid receptor mu = biological target: T2, opioid receptor mu (Homo sapiens, UniProt P35372); experiment: GTPγ[35S] binding assay, antagonism of endorphin
# T2 construct: expressed in transfected cells
# Experimental: as §1
# opioid receptor kappa = biological target: T3, opioid receptor kappa (Homo sapiens, UniProt P41145); experiment: GTPγ[35S] binding assay, antagonism of dynorphin-A
# T3 construct: expressed in transfected cells
# Experimental: as §1
# [1] = read-out: Delta functional Ki (GTPγ[35S] binding)
# [2] = read-out: Mu functional Ki (GTPγ[35S] binding)
# [3] = read-out: Kappa functional Ki (GTPγ[35S] binding)
# [4] = read-out: Delta functional (GTPγ[35S] binding Ki)
# [5] = read-out: Mu functional (GTPγ[35S] binding Ki)
# [6] = read-out: Kappa functional (GTPγ[35S] binding Ki)
# [7] = average Ki, antagonism of BW-373U86 (1 nM) stimulated GTPγ[35S] binding, delta opioid receptor membranes, read-out: Delta functional (GTPγ[35S] binding Ki)
# [8] = average Ki, antagonism of endorphin (1 μM) stimulated GTPγ[35S] binding, mu opioid receptor membranes, read-out: Mu functional (GTPγ[35S] binding Ki)
# [9] = average Ki, antagonism of dynorphin-A (10 nM) stimulated GTPγ[35S] binding, kappa opioid receptor membranes, read-out: Kappa functional (GTPγ[35S] binding Ki)
# T1 sequence (P41143 whole entry): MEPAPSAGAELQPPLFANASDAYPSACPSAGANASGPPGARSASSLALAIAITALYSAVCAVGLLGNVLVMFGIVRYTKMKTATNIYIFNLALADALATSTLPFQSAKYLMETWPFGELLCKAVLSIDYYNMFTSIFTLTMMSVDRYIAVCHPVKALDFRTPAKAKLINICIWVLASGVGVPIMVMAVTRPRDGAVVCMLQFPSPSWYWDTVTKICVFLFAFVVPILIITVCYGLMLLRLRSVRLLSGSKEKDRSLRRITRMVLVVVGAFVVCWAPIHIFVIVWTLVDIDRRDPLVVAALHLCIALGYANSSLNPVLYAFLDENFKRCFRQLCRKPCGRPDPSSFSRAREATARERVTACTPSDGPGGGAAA
# T3 sequence (P41145 whole entry): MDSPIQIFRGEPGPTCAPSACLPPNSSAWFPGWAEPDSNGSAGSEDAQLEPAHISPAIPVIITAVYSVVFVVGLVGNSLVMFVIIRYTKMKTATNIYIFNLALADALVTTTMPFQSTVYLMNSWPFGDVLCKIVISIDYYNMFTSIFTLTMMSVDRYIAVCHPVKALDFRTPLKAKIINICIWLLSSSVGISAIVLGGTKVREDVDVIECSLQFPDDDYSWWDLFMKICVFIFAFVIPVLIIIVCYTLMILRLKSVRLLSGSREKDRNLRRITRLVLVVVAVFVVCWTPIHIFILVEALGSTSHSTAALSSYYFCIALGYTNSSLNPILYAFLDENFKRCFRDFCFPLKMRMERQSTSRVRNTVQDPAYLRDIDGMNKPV
# T2 sequence (P35372 whole entry): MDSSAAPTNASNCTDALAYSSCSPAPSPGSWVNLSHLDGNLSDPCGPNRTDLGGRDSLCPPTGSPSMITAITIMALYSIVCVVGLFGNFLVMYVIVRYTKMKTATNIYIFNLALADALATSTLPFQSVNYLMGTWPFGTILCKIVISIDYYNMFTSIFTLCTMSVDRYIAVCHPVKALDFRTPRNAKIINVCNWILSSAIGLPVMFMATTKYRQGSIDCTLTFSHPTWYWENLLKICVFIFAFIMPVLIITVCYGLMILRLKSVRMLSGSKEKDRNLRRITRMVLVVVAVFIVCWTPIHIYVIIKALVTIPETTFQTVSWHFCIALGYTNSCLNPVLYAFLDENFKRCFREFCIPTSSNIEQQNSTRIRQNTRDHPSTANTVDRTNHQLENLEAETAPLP
Ki (opioid receptor delta; [1]) [nM],Ki (opioid receptor mu; [2]) [nM],Ki (opioid receptor kappa; [3]) [nM],Ki (opioid receptor delta; [4]) [nM],Ki (opioid receptor mu; [5]) [nM],Ki (opioid receptor kappa; [6]) [nM],SMILES,also measured
0.135,0.0298,0.318,–,–,–,Cc1cc(CNC2Cc3ccccc3C2)ccc1-c1ccc(C(N)=O)cc1C [4B-73],–
0.501,1.02,8.11,–,–,–,CCc1cc(C(N)=O)ccc1-c1c(C)cc(CNCCC2CCOCC2)cc1C [4B-76],–
4.79,10.8,2.15,–,–,–,CC(C)CCNCc1ccc(-c2ccc(C(N)=O)cc2Cl)cc1Cl [4B-65],–
8.08,2.53,13.6,–,–,–,CC(C)CCNCc1ccc(-c2ccc(-c3ncn[nH]3)cc2)c(F)c1 [7B-04],–
0.591,0.134,0.78,–,–,–,Cc1cc(C(N)=O)ccc1-c1ccc(CNC2Cc3ccccc3C2)c(O)c1 [4B-88],–
4.09,2.78,4.54,–,–,–,NC(=O)c1ccc(-c2ccc(CNCCC3CCCCO3)cc2Cl)c(Cl)c1 (stereo not drawn) [4B-69],–
0.822,0.201,0.982,–,–,–,Cc1cc(C(N)=O)cnc1-c1ccc(CNC2Cc3ccccc3C2)cc1 [4C-03],–
39.8,9.29,582,–,–,–,CS(=O)(=O)Nc1ccc(-c2ccc(CNC3Cc4ccccc4C3)c(F)c2)cc1 [8B-02],–
32.6,42.1,281,–,–,–,"Cc1cc(CNCCC(C)C)ccc1-c1ccc(NS(C)(=O)=O)cc1 [E8-01, (4′-Methenesulfonylamino-2-methyl-biphenyl-4-ylmethyl)-(3-methyl-butyl)-ammonium chloride]",–
12.5,4.07,2.71,–,–,–,CC(C)CCNCc1ccc(-c2cc(-c3ncn[nH]3)ccc2F)c(F)c1 [7A-03],–
0.0778,0.0145,0.593,–,–,–,Cc1cc(C(N)=O)ccc1-c1c(C)cc(CNC2Cc3ccccc3C2)cc1Cl [4B-84],–

# Further lines, the molecule ahead of its results:
SMILES,Ki (opioid receptor delta; [1]) [nM],Ki (opioid receptor mu; [2]) [nM],Ki (opioid receptor kappa; [3]) [nM],Ki (opioid receptor delta; [4]) [nM],Ki (opioid receptor mu; [5]) [nM],Ki (opioid receptor kappa; [6]) [nM],also measured
Cc1cc(C(N)=O)ccc1-c1cc(F)c(CNC2CCCC2)c(F)c1 [4B-54],14.5,37,15.4,–,–,–,–
Cc1cc(C(N)=O)ccc1-c1ccc(CNCc2ccccc2)cc1 [4B-03],–,–,–,4,3.13,1.84,–
NC(=O)c1cccc(-c2cc(F)c(CNC3Cc4ccccc4C3)c(F)c2)c1 [1A-10],–,–,–,5.5,0.966,14.4,–
Cc1cc(CNCCC(C)C)ccc1-c1ncc(C(N)=O)cc1C [1D-07],–,–,–,–,–,–,Ki (opioid receptor delta; [7]): 9.3 nM; Ki (opioid receptor mu; [8]): 1.43 nM; Ki (opioid receptor kappa; [9]): 8.99 nM
CC(C)CCNCc1ccc(-c2ccc(C(N)=O)cc2Cl)cc1 [4B-29],–,–,–,6.12,16.2,6.1,–
Cc1cc(C(N)=O)ccc1-c1cc(F)c(CN[C@H](C)c2ccccn2)c(F)c1 [4B-53],3.74,92.7,43.1,–,–,–,–
Cc1cc(C(N)=O)ccc1-c1ccc(CNCC2Cc3ccccc3O2)cc1 (stereo not drawn) [4B-31],–,–,–,1.09,4.05,3.71,–
CC(C)CCNCc1ccc(-c2ccc(F)c(C(N)=O)c2)cc1 [4A-02],–,–,–,–,–,–,Ki (opioid receptor delta; [7]): 1.55 nM; Ki (opioid receptor mu; [8]): 44800 nM; Ki (opioid receptor kappa; [9]): 724 nM
Cc1cc(C(N)=O)ccc1-c1ccc(CNCc2ccccc2F)cc1 [4B-26],–,–,–,5.72,4.55,3.32,–
NC(=O)c1ccc(F)c(-c2cc(F)c(CNC3Cc4ccccc4C3)c(F)c2)c1 [1A-11],–,–,–,6.62,0.843,12.4,–
NC(=O)c1ccc(-c2ccc(CNC3Cc4ccccc4C3)cn2)c(Cl)c1 [1D-06],–,–,–,3.45,1.1,4.13,–
NC(=O)c1ccc(-c2ccc(CNC3Cc4ccccc4C3)cc2Cl)c(Cl)c1 [4B-68],–,–,–,–,–,–,"Ki (opioid receptor delta; average Ki, antagonism of BW-373U86 (1 nM) at delta opioid receptor membranes, read-out: Delta functional Ki (GTPγ[35S] binding)): 0.724 nM; Ki (opioid receptor mu; average Ki, antagonism of endorphin (1 μM) at mu opioid receptor membranes, read-out: Mu functional Ki (GTPγ[35S] binding)): 0.24 nM; Ki (opioid receptor kappa; average Ki, antagonism of dynorphin-A (10 nM) at kappa opioid receptor membranes, read-out: Kappa functional Ki (GTPγ[35S] binding)): 0.759 nM"
Cc1cc(C(N)=O)ccc1-c1ccc(CN[C@@H](C)c2ccccc2)cc1 [4B-42],22.2,65.4,6.19,–,–,–,–
Cc1cc(C(N)=O)ccc1-c1ccc(CNC2Cc3ccccc3C2)nc1 [1D-04],–,–,–,0.868,0.715,1.88,–
Cc1cc(C(N)=O)ccc1-c1ccc(CNCCC2CCOCC2)c(F)c1 [4B-60],1.43,3.9,1.49,–,–,–,–
Cc1cc(C(N)=O)ccc1-c1ccc(CNCc2ccc3c(c2)CC(C)(C)O3)cc1 [4B-18],–,–,–,2.46,5.72,18.7,–
CC(C)CCNCc1ccc(-c2cccc(C(N)=O)c2)cc1 [4A-01],–,–,–,–,–,–,Ki (opioid receptor delta; [7]): 15.7 nM; Ki (opioid receptor mu; [8]): 32.8 nM; Ki (opioid receptor kappa; [9]): 26.9 nM
